# Measurements taken from the supplement of paper PMC6045584.
# How the values were obtained:
# Test in all cases: area under dose-response curve of surviving fraction (unscaled, Aref=0) (surviving fraction x log10(nM)); higher = more resistant
# Conditions in all cases: exposure time: 5 days; dose range 0.5-1000 nM
# MK-1775 = compound: C=CCn1c(=O)c2cnc(Nc3ccc(N4CCN(C)CC4)cc3)nc2n1-c1cccc(C(C)(C)O)n1 [MK-1775]
# Summary of the method: (§1)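 Inhibitor was applied to tumour cell lines at eight concentrations (0.5 to 1000 nM) for five days in 384-well plates. Luminescence from CellTiter-Glo, scaled to DMSO-only wells, gave surviving fractions in three screens per line, and these were fitted by 3-parameter logistic regression with the drc R package. The area under the curve is an unscaled activity area. Aref was 0, and dose was on a log10 scale.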
# AFIMOXIFENE = compound: CC/C(=C(\c1ccc(O)cc1)c1ccc(OCCN(C)C)cc1)c1ccccc1 [AFIMOXIFENE]
# Summary of the method: as §1
# [1] = compound: CCc1cc(Nc2nccc(-c3c(-c4ccc(OC)c(C(=O)Nc5c(F)cccc5F)c4)nc4ccccn34)n2)c(OC)cc1N1CCC(N2CCN(S(C)(=O)=O)CC2)CC1
# Summary of the method: as §1
# CABOZANTINIB = compound: COc1cc2nccc(Oc3ccc(NC(=O)C4(C(=O)Nc5ccc(F)cc5)CC4)cc3)c2cc1OC [CABOZANTINIB]
# Summary of the method: as §1
# LENVATINIB = compound: COc1cc2nccc(Oc3ccc(NC(=O)NC4CC4)c(Cl)c3)c2cc1C(N)=O [LENVATINIB]
# Summary of the method: as §1
# [2] = compound: COc1ccc(-c2cc3c(C)nc(N)nc3n([C@H]3CC[C@H](OCCO)CC3)c2=O)cn1
# Summary of the method: as §1
# [3] = compound: C[C@@H]1CN(CC(=O)Nc2ccc3c(c2)Cc2cccc(-c4cc(=O)cc(N5CCOCC5)o4)c2S3)C[C@H](C)O1
# Summary of the method: as §1
# [4] = compound: C[C@H](CN(C)C)Oc1nc(Nc2cc3cccc(Cl)c3cn2)cnc1C#N
# Summary of the method: as §1
# BLEOMYCIN = compound: Cc1c(N)nc([C@H](CC(N)=O)NC[C@H](N)C(N)=O)nc1C(=O)N[C@H](C(=O)N[C@H](C)[C@@H](O)[C@H](C)C(=O)N[C@H](C(=O)NCCc1nc(-c2nc(C(=O)NCCC[S+](C)C)cs2)cs1)[C@@H](C)O)[C@@H](OC1OC(CO)C(O)C(O)C1OC1OC(CO)C(O)C(OC(N)=O)C1O)c1cnc[nH]1 [BLEOMYCIN]
# Summary of the method: as §1
# IMATINIB = compound: Cc1ccc(NC(=O)c2ccc(CN3CCN(C)CC3)cc2)cc1Nc1nccc(-c2cccnc2)n1 [IMATINIB]
# Summary of the method: as §1
# NILOTINIB = compound: Cc1cn(-c2cc(NC(=O)c3ccc(C)c(Nc4nccc(-c5cccnc5)n4)c3)cc(C(F)(F)F)c2)cn1 [NILOTINIB]
# Summary of the method: as §1
# BEZ-235 = compound: Cn1c(=O)n(-c2ccc(C(C)(C)C#N)cc2)c2c3cc(-c4cnc5ccccc5c4)ccc3ncc21 [BEZ-235]
# Summary of the method: as §1
# BMN-673 = compound: Cn1ncnc1[C@H]1c2n[nH]c(=O)c3cc(F)cc(c23)N[C@@H]1c1ccc(F)cc1 [BMN-673]
# Summary of the method: as §1
# VORINOSTAT = compound: O=C(CCCCCCC(=O)Nc1ccccc1)NO [VORINOSTAT]
# Summary of the method: as §1
test system,measurement,setting,value
VP229 BREAST,area under dose-response curve,MK-1775,2.75
same,area under dose-response curve,AFIMOXIFENE,3.71
same,area under dose-response curve,[1],3.66
same,area under dose-response curve,CABOZANTINIB,3.43
same,area under dose-response curve,LENVATINIB,4.16
same,area under dose-response curve,[2],2.08
same,area under dose-response curve,[3],3.29
same,area under dose-response curve,[4],3.45
same,area under dose-response curve,BLEOMYCIN,2.61
same,area under dose-response curve,IMATINIB,4.06
same,area under dose-response curve,NILOTINIB,3.75
same,area under dose-response curve,BEZ-235,2.64
same,area under dose-response curve,BMN-673,3.22
same,area under dose-response curve,VORINOSTAT,3.08
